From ChEMBL document CHEMBL1135688, “Pharmacophore model of drugs involved in P-glycoprotein multidrug resistance: explanation of structural variety (hypothesis)” (J Med Chem, 2002) come the findings set out here.

T1 sequence (P08183 whole entry): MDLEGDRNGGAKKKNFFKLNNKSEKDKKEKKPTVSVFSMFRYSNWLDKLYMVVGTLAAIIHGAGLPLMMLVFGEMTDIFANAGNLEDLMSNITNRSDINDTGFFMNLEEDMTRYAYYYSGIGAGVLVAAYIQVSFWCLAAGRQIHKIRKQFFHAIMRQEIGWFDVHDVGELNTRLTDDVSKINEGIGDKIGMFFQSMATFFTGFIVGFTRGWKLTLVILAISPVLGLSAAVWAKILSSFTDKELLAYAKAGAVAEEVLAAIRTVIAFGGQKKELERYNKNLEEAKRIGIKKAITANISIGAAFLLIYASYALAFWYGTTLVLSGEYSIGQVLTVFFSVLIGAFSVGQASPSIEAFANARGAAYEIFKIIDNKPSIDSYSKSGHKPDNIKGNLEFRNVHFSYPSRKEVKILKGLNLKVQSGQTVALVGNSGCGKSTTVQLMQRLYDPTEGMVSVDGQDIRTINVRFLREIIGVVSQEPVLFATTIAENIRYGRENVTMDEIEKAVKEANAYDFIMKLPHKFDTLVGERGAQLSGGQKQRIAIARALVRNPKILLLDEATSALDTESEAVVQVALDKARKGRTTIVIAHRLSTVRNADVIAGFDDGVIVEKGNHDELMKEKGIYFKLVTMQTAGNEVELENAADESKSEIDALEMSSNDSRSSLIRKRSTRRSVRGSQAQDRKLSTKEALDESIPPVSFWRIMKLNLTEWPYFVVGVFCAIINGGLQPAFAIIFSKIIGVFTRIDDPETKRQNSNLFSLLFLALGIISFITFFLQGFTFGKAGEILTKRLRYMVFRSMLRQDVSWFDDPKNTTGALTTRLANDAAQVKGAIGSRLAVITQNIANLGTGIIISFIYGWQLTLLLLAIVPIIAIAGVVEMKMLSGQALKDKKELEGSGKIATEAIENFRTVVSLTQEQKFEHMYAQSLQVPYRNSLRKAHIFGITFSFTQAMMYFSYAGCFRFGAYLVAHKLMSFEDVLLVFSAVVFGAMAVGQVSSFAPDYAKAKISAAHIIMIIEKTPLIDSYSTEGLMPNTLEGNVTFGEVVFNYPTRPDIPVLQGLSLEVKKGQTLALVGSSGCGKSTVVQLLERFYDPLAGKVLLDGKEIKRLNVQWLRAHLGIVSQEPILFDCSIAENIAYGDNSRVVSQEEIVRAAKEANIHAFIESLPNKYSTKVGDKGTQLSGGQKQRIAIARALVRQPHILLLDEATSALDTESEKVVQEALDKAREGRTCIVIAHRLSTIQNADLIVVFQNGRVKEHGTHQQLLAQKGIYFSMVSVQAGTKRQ

The first series addresses T1, ATP-dependent translocase ABCB1 (Homo sapiens, UniProt P08183). The series can be described thus: High affinity constant at binding site of human P-Glycoprotein (P-gp) in two-affinity model.
Compound `COC(=O)c1ccccc1-c1c2ccc(=N)cc-2oc2cc(N)ccc12` came in with a Ki of 0.1 µM.

For the next series, the target named is T1, ATP-dependent translocase ABCB1. The series can be described thus: Concentration required for 50% inhibition at binding site of human P-Glycoprotein (P-gp) in one-affinity model.
As for `COc1ccc2[nH]c([S+]([O-])Cc3ncc(C)c(OC)c3C)nc2c1` (stereo in doubt; form 3) [OMEPRAZOLE], the half-maximal inhibitory concentration (IC50) worked out at 91.2 µM. Compound `COc1ccc2[nH]c([S+]([O-])Cc3ncc(C)c(OC)c3C)nc2c1` (stereo in doubt; form 1) [OMEPRAZOLE] showed an IC50 of 89 µM. `COc1ccc(CCNCCCC(C#N)(c2ccc(OC)c(OC)c2)C(C)C)cc1OC` (racemic) [NORVERAPAMIL] returned an IC50 of 4.24 µM.

In turn, `COc1ccc2[nH]c([S+]([O-])Cc3ncc(C)c(OC)c3C)nc2c1` (stereo in doubt; form 2) [OMEPRAZOLE] displayed an IC50 of 97.2 µM. The same measure, in the same setting: as for `COC(=O)c1ccccc1-c1c2ccc(=N)cc-2oc2cc(N)ccc12`, the figure is 0.5 µM.

A further series shares this target. The series can be described thus: Fraction of high affinity at binding site of human P-Glycoprotein (P-gp) in two-affinity model.
On to `C=C[C@H]1C[N@@]2CC[C@H]1C[C@@H]2[C@@H](O)c1ccnc2ccc(OC)cc12` [QUINIDINE], for which the Binding site fraction was 0.2.

On to `O=C(CCCN1CCC(O)(c2ccc(Cl)cc2)CC1)c1ccc(F)cc1` [HALOPERIDOL], for which the Binding site fraction is 0.3. Still for that read-out and setting: as for `CC[C@]1(O)C[C@@H]2CN(CCc3c([nH]c4ccccc34)[C@@](C(=O)OC)(c3cc4c(cc3OC)N(C)[C@H]3[C@@](O)(C(=O)OC)[C@H](OC(C)=O)[C@]5(CC)C=CCN6CC[C@]43[C@@H]65)C2)C1` [VINBLASTINE], the figure is 0.4; as for `COC(=O)c1ccccc1-c1c2ccc(=N)cc-2oc2cc(N)ccc12`, 0.7. As for `C=C[C@H]1C[N@@]2CC[C@H]1C[C@H]2[C@H](O)c1ccnc2ccc(OC)cc12` [QUININE], the Binding site fraction is recorded as 0.2.

As for `COCCc1ccc(OCC(O)CNC(C)C)cc1` (stereo not given) [METOPROLOL], the Binding site fraction was 0.2. In turn, `CC(C)NCC(O)COc1ccc(CCNC(=O)NC(C)C)cc1` (stereo not given) [PAFENOLOL] returned a Binding site fraction of 0.2.

For the compound `CN(C)CCCN1c2ccccc2Sc2ccc(Cl)cc21` [CHLORPROMAZINE], the Binding site fraction was 0.8.

With `CC(C)NCC(O)COc1cccc2ccccc12` (stereo not given) [PROPRANOLOL], the Binding site fraction is 0.5.

One may read the Ki as the equilibrium dissociation constant of an inhibitor or competing ligand from its target. One may read the IC50 as the concentration at which inhibition is half-maximal.
